Experimental data from the supplement of paper PMC10307832.

How the values were obtained:
Experiment in all cases: relative viability (nuclei count vs DMSO), 5 days (fraction); higher = more cells survive
VE-821 + Alpelisib = compound: CS(=O)(=O)c1ccc(-c2cnc(N)c(C(=O)Nc3ccccc3)n2)cc1 [VE-821] + Cc1nc(NC(=O)N2CCC[C@H]2C(N)=O)sc1-c1ccnc(C(C)(C)C(F)(F)F)c1 [Alpelisib] (partner 2 µM)
Outline: (§1)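 Lung cancer cell lines in 1536-well plates got either a single drug or a fixed anchor-drug dose together with five library-drug doses (not always all listed) in √10 steps, by pin tool, on the day after seeding. Nuclei were counted after 5 days, and relative viability is the treated-to-vehicle ratio of nuclei counts. Values are medians of duplicate plates.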

Vismodegib + Pemetrexed = compound: CS(=O)(=O)c1ccc(C(=O)Nc2ccc(Cl)c(-c3ccccn3)c2)c(Cl)c1 [Vismodegib] + Nc1nc2[nH]cc(CCc3ccc(C(=O)N[C@@H](CCC(=O)O)C(=O)O)cc3)c2c(=O)[nH]1 [Pemetrexed] (partner 0.2 µM)
Outline: as §1

VE-821 + Dasatinib = compound: CS(=O)(=O)c1ccc(-c2cnc(N)c(C(=O)Nc3ccccc3)n2)cc1 [VE-821] + Cc1nc(Nc2ncc(C(=O)Nc3c(C)cccc3Cl)s2)cc(N2CCN(CCO)CC2)n1 [Dasatinib] (partner 0.075 µM)
Outline: as §1

Vismodegib + OSI-027 = compound: CS(=O)(=O)c1ccc(C(=O)Nc2ccc(Cl)c(-c3ccccn3)c2)c(Cl)c1 [Vismodegib] + COc1cccc2cc(-c3nc([C@H]4CC[C@H](C(=O)O)CC4)n4ncnc(N)c34)[nH]c12 [OSI-027] (partner 0.5 µM)
Outline: as §1

Row | Cell Line | relative viability (VE-821 + Alpelisib; first compound 0.08 µM) | relative viability (VE-821 + Alpelisib; first compound 0.253 µM) | relative viability (VE-821 + Alpelisib; first compound 0.8 µM) | relative viability (VE-821 + Alpelisib; first compound 2.53 µM) | relative viability (VE-821 + Alpelisib; first compound 8 µM) | relative viability (Vismodegib + Pemetrexed; first compound 0.08 µM) | relative viability (Vismodegib + Pemetrexed; first compound 0.253 µM) | relative viability (Vismodegib + Pemetrexed; first compound 0.8 µM) | relative viability (Vismodegib + Pemetrexed; first compound 2.53 µM) | relative viability (Vismodegib + Pemetrexed; first compound 8 µM) | relative viability (VE-821 + Dasatinib; first compound 0.08 µM) | relative viability (VE-821 + Dasatinib; first compound 0.253 µM) | relative viability (VE-821 + Dasatinib; first compound 0.8 µM) | relative viability (VE-821 + Dasatinib; first compound 2.53 µM) | relative viability (VE-821 + Dasatinib; first compound 8 µM) | relative viability (Vismodegib + OSI-027; first compound 0.08 µM) | relative viability (Vismodegib + OSI-027; first compound 0.253 µM) | relative viability (Vismodegib + OSI-027; first compound 0.8 µM) | relative viability (Vismodegib + OSI-027; first compound 2.53 µM) | relative viability (Vismodegib + OSI-027; first compound 8 µM)
1 | NCI-H1915 | 1.13 | 1.03 | 1.06 | 1.16 | 0.941 | 0.464 | 0.434 | 0.515 | 0.444 | 0.49 | 0.335 | 0.295 | 0.345 | 0.33 | 0.332 | 0.669 | 0.592 | 0.536 | 0.566 | 0.608
2 | NCI-H2085 | 1 | 0.853 | 0.713 | 0.984 | 0.922 | 0.78 | 0.887 | 0.944 | 0.98 | 0.865 | 0.214 | 0.259 | 0.192 | 0.226 | 0.202 | 0.9 | 0.732 | 0.756 | 0.74 | 0.662
3 | NCI-H2228 | 0.7 | 0.825 | 0.683 | 0.687 | 0.737 | 0.342 | 0.401 | 0.291 | 0.316 | 0.333 | 0.602 | 0.457 | 0.621 | 0.528 | 0.31 | 0.7 | 0.636 | 0.587 | 0.532 | 0.467
4 | EKVX | 0.977 | 0.842 | 0.535 | 0.8 | 0.61 |  | 0.334 | 0.359 | 0.402 | 0.387 | 0.531 | 0.483 | 0.449 | 0.45 | 0.328 | 0.677 | 0.67 | 0.676 | 0.715 | 0.731
5 | COR-L23 | 0.787 | 0.714 | 0.746 | 0.837 | 0.525 | 0.195 | 0.19 | 0.184 | 0.195 | 0.207 | 0.678 | 0.48 | 0.545 | 0.536 | 0.395 | 0.753 | 0.743 | 0.742 | 0.793 | 0.751
6 | SK-MES-1 | 1.03 | 0.847 | 0.776 | 0.954 | 0.866 | 0.853 | 0.928 | 0.871 | 0.972 | 0.825 | 0.389 | 0.379 | 0.274 | 0.332 | 0.199 | 0.729 | 0.576 | 0.598 | 0.59 | 0.577
7 | A549 | 0.995 | 0.746 | 0.624 | 0.872 | 0.548 |  |  |  |  |  |  |  |  |  |  |  |  |  |  | 
8 | NCI-H650 | 1.19 | 1.25 | 0.932 | 1.19 | 1.1 | 0.896 | 0.983 | 0.898 | 0.958 | 1.01 | 0.501 | 0.445 | 0.465 | 0.528 | 0.426 | 0.604 | 0.513 | 0.454 | 0.511 | 0.491
9 | NCI-H2087 | 1.18 | 0.945 | 1.4 | 1.06 | 1.06 | 0.692 | 0.657 | 0.651 | 0.643 | 0.657 | 0.871 | 0.814 | 0.912 | 1.2 | 0.786 | 0.645 | 0.476 | 0.398 | 0.618 | 0.39
